14 compounds from ChEMBL document CHEMBL4422681, “Comprehensive kinetic and substrate specificity analysis of an arylsulfatase from Helix pomatia using mass spectrometry” (Bioorg Med Chem, 2019) can be followed below.

Where a name gives a salt, the structure may show the parent alone.

A short description of series [1]: Stability of the compound in pH 7 ammonium acetate buffer by UPLC-MS/MS analysis. Type of series: physicochemical.
Series [2] concerns arylsulfatase. The series can be described thus: Substrate activity at Helix pomatia arylsulfatase assessed as enzyme-mediated compound hydrolysis using 1 U of enzyme measured after 24 hrs by UPLC-MS/MS analysis. As to conditions: Helix pomatia arylsulfatase (isolated enzyme), read-out: Drug metabolism. Format: ADME.
Series [3] concerns arylsulfatase. The series can be described thus: Substrate activity at Helix pomatia arylsulfatase assessed as enzyme-mediated compound hydrolysis by measuring Km by UPLC-MS/MS analysis. Format: ADME. To be noted: Helix pomatia arylsulfatase (isolated enzyme).
Series [4] in a line: Substrate activity at Helix pomatia arylsulfatase assessed as enzyme-mediated compound hydrolysis by measuring Vmax by UPLC-MS/MS analysis. Format: ADME.
Series [5] is described as follows: Substrate activity at Helix pomatia arylsulfatase assessed as enzyme-mediated compound hydrolysis by measuring catalytic efficiency by UPLC-MS/MS analysis. Format: ADME.
For series [6], the system named is arylsulfatase. The series can be described thus: Substrate activity at Helix pomatia arylsulfatase assessed as enzyme-mediated compound hydrolysis using 1 U of enzyme measured after 30 mins by UPLC-MS/MS analysis. Type of series: ADME. As to conditions: Helix pomatia arylsulfatase (isolated enzyme), read-out: Drug metabolism.
Series [7] can be described thus: Drug metabolism in pH 7 ammonium acetate buffer assessed as 7-hydroxy-4-methyl-2H-chromen-2-one formation.
Series [8] deals with arylsulfatase. The series can be described thus: Substrate activity at Helix pomatia arylsulfatase assessed as enzyme-mediated compound hydrolysis using 5 U of enzyme measured after 30 mins by UPLC-MS/MS analysis. Type of series: ADME. As to conditions: Helix pomatia arylsulfatase (isolated enzyme), read-out: Drug metabolism.
In series [9] the test system is arylsulfatase. The series can be described thus: Substrate activity at Helix pomatia arylsulfatase assessed as enzyme-mediated compound hydrolysis by measuring parent compound remaining using 0.1 U of enzyme measured after 30 mins by UPLC-MS/MS analysis. Type of series: ADME. As to conditions: Helix pomatia arylsulfatase (isolated enzyme), read-out: Stability.

On to `O=S(=O)(O)Oc1c[nH]c2ccccc12` [INDOXYL SULFATE], for which, in series [1], the Stability result is on record as “Stable”. Moreover, the metabolised at 24 h in the series with arylsulfatase [2] was 100%. Also, in the series with arylsulfatase [3], the Km was determined as 216 µM. Further, in series [4], the Vmax was 0.02 µM/s. Also, the Activity in [5] stood at 1060 s⁻¹ µM⁻¹.

For `C[C@]12CC[C@@H]3c4ccc(OS(=O)(=O)O)cc4CC[C@H]3[C@@H]1CCC2=O` [ESTRONE SULFURIC ACID], the Stability result in [1] is “Stable”. For the same compound, in the series with arylsulfatase [6], the metabolised at 0.5 h was 100%. Also, in the series on arylsulfatase [3], the Km amounted to 351 µM. Moreover, in [4], the Vmax was 3.8 µM/s.

With `O=C(O)/C=C/c1ccc(OS(=O)(=O)O)cc1`, the Stability result in series [1] is “Stable”. For the same compound, the metabolised at 24 h in the series with arylsulfatase [2] is 100%. Further, the Km in the series on arylsulfatase [3] amounted to 262 µM. Besides, the Vmax in [4] worked out at 0.02 µM/s. Moreover, in series [5], the Activity was determined as 898 s⁻¹ µM⁻¹.

For the compound `CCc1ccc(OS(=O)(=O)O)cc1`, the Stability result in [1] is reported as “Stable”. Besides, in the series with arylsulfatase [2], the metabolised at 24 h was found to be 100%. In the series with arylsulfatase [3], the Km is 1020 µM. The maximal velocity (Vmax) in [4] came out at 0.66 µM/s. Also, the Activity in [5] is 7010 s⁻¹ µM⁻¹.

For the compound `COc1cc(/C=C/C(=O)O)ccc1OS(=O)(=O)O`, the Stability result in series [1] is given as “Stable”. In addition, in the series on arylsulfatase [2], the metabolised at 24 h turned out to be 100%. For the same compound, the Km in the series with arylsulfatase [3] was 161 µM. The Vmax in series [4] was 0.01 µM/s. Further, the Activity in series [5] came to 862 s⁻¹ µM⁻¹.

Take `Cc1ccc(OS(=O)(=O)O)cc1`: in series [1], the Stability result is recorded as “Stable”. The metabolised at 24 h in the series with arylsulfatase [2] stood at 100%. For the same compound, the Km in the series on arylsulfatase [3] was 1400 µM. Also, the Vmax in [4] is 0.08 µM/s. Moreover, the Activity in series [5] turned out to be 623 s⁻¹ µM⁻¹.

Turning to `C=Cc1ccc(OS(=O)(=O)O)c(OC)c1`, the Stability result in [1] is “Stable”. In addition, the metabolised at 0.5 h in the series with arylsulfatase [6] is 100%.

On to `Cc1c[nH]c2ccc(OS(=O)(=O)O)cc12`, for which, in series [1], the Stability result is “Stable”. Moreover, in the series with arylsulfatase [2], the metabolised at 24 h came out at 100%.

Turning to `Cc1cc(=O)oc2cc(OS(=O)(=O)O)ccc12`, the Drug metabolism result in series [7] is “Metabolite detected”. For the same compound, the metabolised at 0.5 h in the series with arylsulfatase [8] and in the series on arylsulfatase [6] was 100% in each case. The remaining at 0.5 h in the series with arylsulfatase [9] stood at 3%. The Stability result in series [1] is reported as “Stable”. Moreover, the Michaelis constant (Km) in the series on arylsulfatase [3] was determined as 175 µM. The Vmax in series [4] amounted to 2.66 µM/s.

With `O=S(=O)(O)Oc1cccc(O)c1`, the Stability result in series [1] is given as “Stable”. For the same compound, the metabolised at 24 h with arylsulfatase [2] came to 100%. In addition, the Km in the series with arylsulfatase [3] stood at 131 µM. For the same compound, the Vmax in series [4] is 0.01 µM/s. Besides, in series [5], the Activity stood at 696 s⁻¹ µM⁻¹.

For `COc1cc(C(=O)O)ccc1OS(=O)(=O)O`, the Stability result in series [1] is listed as “Stable”. Further, the metabolised at 24 h with arylsulfatase [2] was determined as 100%. In the series on arylsulfatase [3], the Km was 341 µM. Further, the Vmax in [4] was determined as 0.01 µM/s. Also, the Activity in series [5] amounted to 351 s⁻¹ µM⁻¹.

On to `O=[N+]([O-])c1ccc(OS(=O)(=O)O)cc1`, for which, in [1], the Stability entry was “Stable”. Further, in the series with arylsulfatase [6], the metabolised at 0.5 h came out at 100%.

Consider `CC(=O)NCCc1ccc(OS(=O)(=O)O)cc1`, for which, in series [1], the Stability result is recorded as “Stable”. Besides, in the series on arylsulfatase [2], the metabolised at 24 h stood at 100%. Moreover, the Km in the series with arylsulfatase [3] is 1490 µM. Further, the Vmax in series [4] is 0.17 µM/s. Besides, the Activity in series [5] was determined as 1210 s⁻¹ µM⁻¹.

Regarding `COc1ccc2c(c1)c(=O)oc1cc(OS(=O)(=O)O)ccc12`, in [1], the Stability entry is “Stable”. For the same compound, in the series on arylsulfatase [6], the metabolised at 0.5 h is 100%. Besides, the Km with arylsulfatase [3] was 112 µM. In series [4], the Vmax was 8.21 µM/s.

One may read the Km as the substrate concentration at which the rate is half of its maximum. A word on the Vmax: it is the rate approached at saturating substrate.
